Experimental data from US10633374B2, “Small molecule based antibody-recruiting compounds for cancer treatment” (YALE UNIVERSITY, priority 2015, dated 2020).

Key:
[1] = test system: anti-DNP antibodies; test: Affinity for anti-DNP antibodies; assay type: binding
[2] = target: T1, recombinant uPAR (Homo sapiens, UniProt Q03405); test: Fluorescence quenching titration of ARM-U2 derivatives with uPAR; assay type: binding; details: fluorescence titration of 100 nM derivative with increasing uPAR; read-out: Kd, solution equilibrium dissociation constant with uPAR
T1 construct: purchased R&D systems
Description: Selected ARM-U2 derivatives were assayed for their ability to bind recombinant uPAR using a fluorescence quenching assay. […] Increasing concentrations of recombinant uPAR were mixed with each compound containing aliquot and the fluorescence of the solution measured following 1 h equilibration times. […] To confirm that the observation of uPAR dependent fluorescence quenching was indeed due to specific binding to uPAR and to validate ARM-U2 binding to uPAR specifically via the uPA binding site, a direct binding ELISA assay was developed. In this assay, clear 96-well high-binding plates from CoStar, were loaded with 100 μl/well of 50 nM recombinant uPAR 807-UK-100-CF from R&D systems prepared from a 100 μg/ml (approx. 2.1 μM) stock of uPAR in PBS and left overnight at room temperature to equilibrate. Following equilibration, the plate was washed with wash buffer 1× (400 μl/well of 0.05% Tween/PBS), blotted dry and blocked for 1 hr with 300 ul/well of 2% BSA/PBS. Following blocking, the plate was washed with 400 ul of the wash buffer and blotted dry. […] The absorbance at 450 nm was measured using an in-house Perkin-Elmer fluorescence plate reader.
All ARM-U2 derivatives were assessed for their ability to bind selectively to recombinant uPAR in vitro using a competitive ELISA binding assay. […] Selective binding to uPAR by ARM-U2 at the uPA binding site competes with uPAR-uPA binding which is required for a positive UV 450 nm absorbance signal. Increasing concentrations of ARM-U2 displace increasing amounts of uPAR from uPA which is detected by anti-uPAR/biotin labeled antibodies followed by avidin-HRP. The sigmoidal binding isotherm of absorbance at 450 nm vs log ARM-U2 concentration can then by fit by non-linear regression analysis to obtain the IC50 for ARM-U2/uPAR binding (Equation S2) which can then be translated into a KI for ARM-U2/uPAR binding using a competitive binding model adapted from the Cheng-Prusoff equation relating KI to IC50 (Equation S3). […]

[3] = target: T2, immobilized uPAR (Homo sapiens, UniProt Q03405); test: Direct ELISA binding assay on immobilized uPAR
T2 construct: purchased R&D systems 807-UK-100-CF
Description: Selected ARM-U2 derivatives were assayed for their ability to bind recombinant uPAR using a fluorescence quenching assay. The compounds stored at −20° C. as DMSO stocks were diluted into PBS aliquots at a fixed 50 nM concentration. Increasing concentrations of recombinant uPAR were mixed with each compound containing aliquot and the fluorescence of the solution measured following 1 h equilibration times. […] To confirm that the observation of uPAR dependent fluorescence quenching was indeed due to specific binding to uPAR and to validate ARM-U2 binding to uPAR specifically via the uPA binding site, a direct binding ELISA assay was developed. In this assay, clear 96-well high-binding plates from CoStar, were loaded with 100 μl/well of 50 nM recombinant uPAR 807-UK-100-CF from R&D systems prepared from a 100 μg/ml (approx. 2.1 μM) stock of uPAR in PBS and left overnight at room temperature to equilibrate. Following equilibration, the plate was washed with wash buffer 1× (400 μl/well of 0.05% Tween/PBS), blotted dry and blocked for 1 hr with 300 ul/well of 2% BSA/PBS. Following blocking, the plate was washed with 400 ul of the wash buffer and blotted dry. […] The absorbance at 450 nm was measured using an in-house Perkin-Elmer fluorescence plate reader.

[4] = target: T3, uPAR (uPA binding site) (Homo sapiens, UniProt Q03405); test: Competitive ELISA uPAR binding assay (immobilized urokinase); details: at the uPA binding site
T3 construct: purchased R&D systems
Description: The affinity of ARM-U2 derivatives differing in both the length of the DNP-linker substituted at position 2 of ring C and the display of negative charge density (FIG. 8, Table 1) for uPAR were assayed using a competitive ELISA binding assay. The assay involves the immobilization of urokinase, a natural high affinity ligand for uPAR followed by the addition of a fixed concentration of recombinant uPAR protein and increasing concentrations of ARM-U2 which competes with urokinase for binding to the uPA binding site of uPAR. Following several washing steps, the amount of uPAR bound is quantified by a biotinylated anti-uPAR antibody and avidin-HRP and can be fit to a competitive binding model allowing for the extraction of the uPAR/ARM-U2 Kd.
All ARM-U2 derivatives were assessed for their ability to bind selectively to recombinant uPAR in vitro using a competitive ELISA binding assay. DMSO stock solutions of each ARM-U2 derivative stored at −20° C. were titrated into wells pre-coated with human urokinase (isolated from human urine, ProSpec 1 mg/ml deI water 18.5 μM) in the presence of uPAR. Selective binding to uPAR by ARM-U2 at the uPA binding site competes with uPAR-uPA binding which is required for a positive UV 450 nm absorbance signal. Increasing concentrations of ARM-U2 displace increasing amounts of uPAR from uPA which is detected by anti-uPAR/biotin labeled antibodies followed by avidin-HRP. The sigmoidal binding isotherm of absorbance at 450 nm vs log ARM-U2 concentration can then by fit by non-linear regression analysis to obtain the IC50 for ARM-U2/uPAR binding (Equation S2) which can then be translated into a KI for ARM-U2/uPAR binding using a competitive binding model adapted from the Cheng-Prusoff equation relating KI to IC50 (Equation S3). The ELISA experiments were performed as followed: To Corning high binding 96 well flat bottom plates was added 100 μl/well of 100 nM urokinase in sterile PBS. The plates were sealed and left to incubate at 4° C. overnight. The plates were then washed 1× with 200 μl wash buffer (PBS+0.05% Tween-20) and 1× with 400 μl wash buffer. The plates were blotted on paper towel and blocked for 1 h shaking at room temp with 300 μl of a solution of thermo superblock in PBS per well. Molecule dilutions into solutions of a fixed concentration (10 nM) of uPAR were prepared in 0.025% triton-X/PBS on a separate low binding plate during the blocking hour. The plates were again washed followed by the addition of 100 μl of the ARM-U2/uPAR solution with 0.1% final DMSO concentration. The solutions were mixed by multichannel pipette, sealed, and incubated for 2 h with shaking at room temperature. The plates were then washed 1× with 200 μl wash buffer (PBS+0.05% Tween-20) and 2× with 400 μl wash buffer. The plates were blotted on a paper towel followed by the addition of 100 μl/well of a solution of biotinylated anti-uPAR antibody in 1% BSA/PBS. (R&D Systems, 3.3 μl taken from 50 μg/250 μl-1000× stock) and incubation with shaking for 1 h at room temp. The plates were washed 1× with 200 μl wash buffer and 2× with 400 μl wash buffer and blotted on a paper towel. 100 μl of avidin-HRP (stock −500× from e-bioscience) were added per well, incubated 20 min with shaking at room temp followed by washing 1× with 200 μl wash buffer and 3× with 400 μl wash buffer. The plates were blotted dry with paper towel and 100 μl of TMB substrate was added to each well. The emergence of blue color was monitored and the reaction quenched with the addition of 50 μl of 2M sulfuric acid to each well followed by measuring the absorbance at 450 nm using a fluorescence plate reader. […]

T1 sequence (Q03405 23-305): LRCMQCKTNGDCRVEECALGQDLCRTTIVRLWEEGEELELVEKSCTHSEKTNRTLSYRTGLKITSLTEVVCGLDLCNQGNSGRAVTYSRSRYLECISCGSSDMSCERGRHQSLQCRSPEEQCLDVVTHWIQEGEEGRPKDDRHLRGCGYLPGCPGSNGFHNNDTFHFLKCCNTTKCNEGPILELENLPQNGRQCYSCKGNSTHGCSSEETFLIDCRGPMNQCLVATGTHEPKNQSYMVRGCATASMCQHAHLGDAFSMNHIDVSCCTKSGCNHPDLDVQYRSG
T3 sequence (Q03405 23-305): as above
T2 sequence (Q03405 23-305): as above

Kd [2] [nM] | uPAR binding affinity (order of magnitude) [4] | SMILES | affinity for anti-DNP antibodies [1] | binding to immobilized uPAR vs parent derivative [3]
– | – | O=C1c2ccccc2-c2onc3c(N4CCC[C@@H](C(=O)NCCCOCCOCCOCCCNc5ncccn5)C4)cc(Nc4ccc(S(=O)(=O)O)cc4S(=O)(=O)O)c1c23 [6-ABT-4] | no affinity for anti-DNP antibodies | –
66 | – | O=C1c2ccccc2-c2onc3c(N4CCC[C@H](C(=O)NCCOCCOCCOCCOCCOCCOCCOCCNc5ccc([N+](=O)[O-])cc5[N+](=O)[O-])C4)cc(Nc4ccc(S(=O)(=O)O)cc4S(=O)(=O)O)c1c23 [6-ABT-2] | – | much higher affinity than parent derivative 1-ABT-1
275 | triple digit nanomolar binding affinity | O=C(O)c1cccc(Nc2cc(N3CCC[C@H](C(=O)NCCCOCCOCCOCCCNc4ccc([N+](=O)[O-])cc4[N+](=O)[O-])C3)c3noc4c3c2C(=O)c2ccccc2-4)c1 [1-ABT-1] | – | –
